Test results from patent US11098040B2, “Compounds and methods of use” (Ferro Therapeutics, Inc., priority 2018, dated 2021).

How the values were obtained:
[1] = system: KP4; test: Cell viability assay (CellTiter Glo), pancreatic ductal adenocarcinoma KP4; assay type: cell-based, human; conditions: Homo sapiens, KP-4, 96 h, pancreatic cancer cell line KP4, 96 hours, CellTiter Glo; read-out: IC50 μM KP4
How it was run: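 KP4 cells seeded at 1,000–10,000 per well, treated 96 h with 9-point 3-fold dilutions from 30 μM top (4.6 nM–30 μM, duplicates; ≤0.25% DMSO). Viability by CellTiter Glo luminescence; % inhibition relative to DMSO-only wells, giving IC50, relative IC50 or % top inhibition.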

[2] = Whole blood stability, mouse; assay type: in vitro ADME
Source text: (§1) The results of the assay on stability in blood and IC50 values for pancreatic cancer cell line KP4 are given below in Table 24.

[3] = Whole blood stability, human; assay type: in vitro ADME
Source text: as §1

Row | IC50 [1] [µM] | Whole Blood Stability % Remaining at 37° C. Mouse ([2]; 0 min) [%] | Whole Blood Stability % Remaining at 37° C. Mouse ([2]; 30 min) [%] | Whole Blood Stability % Remaining at 37° C. Mouse ([2]; 60 min) [%] | Whole Blood Stability % Remaining at 37° C. Human ([3]; 0 min) [%] | Whole Blood Stability % Remaining at 37° C. Human ([3]; 30 min) [%] | Whole Blood Stability % Remaining at 37° C. Human ([3]; 60 min) [%] | SMILES
1 | < 0.01 | 100.0 | 87.2 | 90.1 | 100.0 | 96.3 | 75.6 | C[C@H]1Cc2c([nH]c3ccccc23)[C@H](c2ccc(C(=O)N[C@]34CC5C[C@H](C[C@H](C5)C3)C4)cc2)N1C(=O)CCl [Compound 102]
2 | > 1 | 100.0 | 75.6 | 80.6 | 100.0 | 104.9 | 113.4 | COC(=O)[C@H]1CC2c3ccccc3NC2[C@H](c2ccc(C(=O)OC(C)(C)C)cc2)N1C(=O)C(F)(F)Cl (stereo partly shown) [Compound 34]
3 | < 0.01 | 100.0 | 79.2 | 87.7 | 100.0 | 96.1 | 68.1 | C[C@H]1Cc2c([nH]c3ccccc23)[C@H](c2ccc(C3CCCC3)cc2)N1C(=O)CCl [Compound 109]
4 | < 0.01 | 100.0 | 68.7 | 69.3 | 100.0 | 58.3 | 44.6 | C[C@H]1Cc2c([nH]c3ccccc23)[C@H](c2ccc(C3CCOCC3)cc2)N1C(=O)CCl [Compound 112]
5 | 0.01 to 0.1 | 100.0 | 42.9 | 13.8 | 100.0 | 44.9 | 40.4 | CN(C)C(=O)[C@H]1Cc2c([nH]c3ccccc23)[C@H](c2ccc(C(=O)N(CCC(=O)OC(C)(C)C)C(C)(C)C)cc2)N1C(=O)CCl [Compound 54]
6 | 0.1 to 0.5 | 100.0 | 0.0 | 0.0 | 100.0 | 40.2 | 21.0 | COC(=O)c1ccc([C@@H]2c3[nH]c4ccc(F)cc4c3C[C@H](C(=O)OC)N2C(=O)CCl)cc1 [Compound 92]
7 | < 0.01 | 100.0 | 82.2 | 113.2 | 100.0 | 46.8 | 29.8 | C[C@H]1Cc2c([nH]c3ccccc23)[C@H](c2ccc(S(=O)(=O)N[C@]34CC5C[C@H](C[C@H](C5)C3)C4)cc2)N1C(=O)CCl [Compound 101]
8 | < 0.01 | 100.0 | 84.1 | 63.3 | 100.0 | 54.3 | 36.9 | COC(=O)[C@H]1Cc2c([nH]c3ccccc23)[C@H](c2ccc(C(=O)NCCNC(=O)OC(C)(C)C)cc2)N1C(=O)CCl [Compound 16]
9 | 0.01 to 0.1 | 100.0 | 97.0 | 108.4 | 100.0 | 113.1 | 70.7 | COC[C@H]1Cc2c([nH]c3ccccc23)[C@H](c2ccc(C(=O)OC(C)(C)C)cc2)N1C(=O)CCl [Compound 63]
10 | < 0.01 | 100.0 | 0.0 | 0.0 | 100.0 | 69.6 | 44.1 | COC(=O)c1ccc([C@H]2c3[nH]c4c(Br)cccc4c3C[C@H](C(=O)OC)N2C(=O)CCl)cc1 [Compound 97]
11 | 0.01 to 0.1 | 100.0 | 0.0 | 0.0 | 100.0 | 82.4 | 100.0 | COC(=O)C1CCC([C@H]2c3[nH]c4ccccc4c3C[C@H](C(=O)N(C)C)N2C(=O)CCl)CC1 (stereo partly shown) [Compound 41]
12 | < 0.01 | 100.0 | 0.0 | 0.0 | 100.0 | 73.5 | 54.4 | COC(=O)[C@H]1Cc2c([nH]c3ccccc23)[C@H](c2ccc(C(=O)OCC3CCC3)cc2)N1C(=O)CCl [Compound 85]
13 | 0.01 to 0.1 | 100.0 | 79.9 | 52.0 | 100.0 | 51.8 | 59.4 | COCCN(C(=O)c1ccc([C@H]2c3[nH]c4ccccc4c3C[C@H](C(=O)N(C)C)N2C(=O)CCl)cc1)C(C)(C)C [Compound 52]
14 | < 0.01 | 100.0 | 0.0 | 0.0 | 100.0 | 50.3 | 27.1 | COC(=O)c1ccc([C@@H]2c3[nH]c4ccc(Cl)cc4c3C[C@H](C(=O)OC)N2C(=O)CCl)cc1 [Compound 94]
15 | < 0.01 | 100.0 | 0.0 | 0.0 | 100.0 | 65.8 | 47.2 | COC(=O)c1ccc([C@H]2c3[nH]c4ccc(F)cc4c3C[C@H](C(=O)OC)N2C(=O)CCl)cc1 [Compound 91]
16 | < 0.01 | 100.0 | 34.2 | 0.0 | 100.0 | 72.9 | 44.0 | C[C@H]1Cc2c([nH]c3ccc(C#N)cc23)[C@H](c2ccc(N3CCOCC3)cc2)N1C(=O)CCl [Compound 115]
